We go through two compounds from paper PMC3630250 (Clinical cancer research : an official journal of the …, 2013).

The subject of one series is Balb/c mice. The note with it: twice daily for 4 days; cited from earlier work.
The test system of a further series is mice. The note with it: cited from earlier work.
Series [1] concerns IκBα phosphorylation in HEK293 cells. In words: IκBα phosphorylation after TNFα stimulation. It is filed as cell-based. The note with it: HEK293, 5 and 10 min after TNFα stimulation.

Regarding `COc1c(Cl)cc2c([nH]c3cnccc32)c1NC(=O)c1cccnc1C` [ML-120B], the “granulocytosis and LPS-induced mortality” value in the series on Balb/c mice was “resulted in granulocytosis and LPS-induced mortality”. Further, in the series on mice, the toxicity in mice result is reported as “showed toxicity in mice”.
As to `NC(=O)Nc1sc(-c2ccc(F)cc2)cc1C(N)=O` [TPCA1], the “inhibition of IκBα phosphorylation and degradation at early time points” value in series [1] is reported as “complete inhibition”. In the series on mice, the toxicity in mice entry is on record as “showed toxicity in mice”.
